Take `COC(=O)C1Oc2ccc(F)cc2C(C)(c2ccccc2)O1` (stereo not given): the melting point amounted to 95 °C.
For `CCOC(=O)c1cc2cccc(N(CC)S(=O)(=O)c3cccs3)c2[nH]1`, the melting point lay in the range of 124 to 125 °C.
The figure for `COc1ccc(OC)c(COc2cc(Cl)sn2)c1` is 52 to 55 °C.
With `N#CCc1cn(Nc2ccncc2)c2ccccc12` the figure was 80 to 83 °C.
`O=C(O)c1ccc(CBr)c(C(F)(F)F)c1` came in with a melting point of 136 to 140 °C.
As for `Cc1ccc2oc(=O)c(=O)oc2c1`, the melting point was 121 to 123 °C.
With `CC(C)(NS(=O)(=O)c1ccc2oc3cc(Cl)ccc3c2c1)C(=O)NO` the figure was 195 to 196 °C; with `Cc1ccc2c(c1)c1cc(Br)ccc1n2C(=O)OC(C)(C)C`, 96 °C.
Take `CNC(=O)[C@H]1CN(c2ccc3c(c2)oc(=O)n3C(C)C)C(=O)O1`: the melting point lay in the range of 216 to 218 °C.
The compound `CCOC(=O)C(=O)CC(=O)c1cn(Cc2ccc(F)cc2)c2c(Cl)cccc2c1=O` came in with a melting point of 164 to 165 °C.
`Nc1ccc(OCC(O)CO)c(O)c1` (stereo not given) gave a melting point of 141 °C.
The compound `CCC(CC)c1ccc(Cl)c2nc3n(c12)CCCCN3c1ncc(C(N)=O)cc1C` came in with a melting point of 234 to 235 °C.
`CC1(C)C(C(=O)O)C1C(C(Cl)(Br)C(F)(F)F)S(C)(=O)=O` (stereo not given) had a melting point of 138 °C.
For `Oc1cccc(O)c1Cl`, the melting point amounted to 97 °C.
The figure for `CSCCC1NCCNC1=O` (stereo not given) is 68 to 70 °C; for `O=C(c1ccc(N2CCOCC2)cc1)c1ccc([N+](=O)[O-])cc1` it is 173 to 175 °C.
`CCOC(=O)NC1Cc2ccccc2C1Sc1ccccc1` (stereo not given) registered a melting point of 60.5 to 62 °C.
In turn, `N#CCCN1CCC(COC(=O)c2cc(Cl)c(N)c3c2OCCO3)CC1` came in with a melting point of 101 to 103 °C.
With `CCOC(=O)Cc1nnc(NS(=O)(=O)c2ccc(NC(C)=O)cc2)s1` the figure was 156 to 157 °C.
`COC(Cc1cc(C)c(OCCc2nc(C(C)(C)C)oc2C)c(C)c1)C(=O)O` (stereo not given) displayed a melting point of 78 to 80 °C.
With `CC(=O)CCCCCCCC(=O)c1ccc(OCc2ccccc2)c(OCc2ccccc2)c1` the figure was 72 to 74 °C.
The figure for `Nc1cccc(Oc2ccc(-c3ccc(Oc4cccc(N)c4)cc3)cc2)c1` is 144 to 146 °C.
Consider `CCOC(=O)c1nnc2n1-c1ccccc1C(c1ccccc1Cl)=NC2`, for which the melting point lay within 235 to 237 °C.
`CS(=O)(=O)Nc1ccc(C(=O)CCC(=O)O)cc1`: the melting point was in the range of 198 to 200 °C.
In the case of `COCCc1nc2c(N)nc3ccccc3c2n1CCCNC(=O)OC(C)(C)C`, the melting point is 174 to 176 °C.
With `CCCCNC(=O)c1ccc(Cl)c(-n2nc(CCCC)n(Cc3ccc(-c4ccccc4S(=O)(=O)NC(=O)OC(C)(C)C)cc3F)c2=O)c1`, the melting point lay within 98 to 100 °C.
With `CN(C)CCCc1nc2ccccc2[nH]1` the figure was 117 to 119 °C; with `COc1cc(-c2csc(NS(=O)(=O)c3ccccc3)n2)ccc1OCc1ccccc1`, 152 to 155 °C.
The figure for `COc1ccc(Sc2nccn2C)c([N+](=O)[O-])c1` is 117 to 120 °C; for `CCOC(=O)C1=C(C)NC(=S)N(C(=O)c2ccccc2)C1c1cccc([N+](=O)[O-])c1` (stereo not given) it is 173 to 175 °C.
For the compound `CCOCc1nc2c(N)nc3cc(OCc4cccc([N+](=O)[O-])c4)ccc3c2n1CC(C)C`, the melting point was 162 to 164 °C.
The figure for `CCC(C)n1ncn(-c2ccc(N3CCN(c4ccc(OC)cc4)CC3)cn2)c1=O` (stereo not given) is 139 to 140 °C; for `C=CCNc1nc(N(CC=C)CC=C)nc2ccc(Cl)cc12` it is 73 to 74 °C; for `N#Cc1c(N2CCN(C(=O)c3ccco3)CC2)c2cc(F)cnc2n(CC(=O)c2ccccc2)c1=O` it is 293 °C.
The figure for `CC(=O)OC1C(N2CCCCC2)CC2C3CCC4CC(O)C(N5CCOCC5)CC4(C)C3CCC21C` (stereo not given) is 177 to 184 °C; for `CCCCCCCCCCCC(=O)NC(CCCCNN=C=S)C(=O)O` (stereo not given) it is 37 to 39 °C; for `NC(=C[N+](=O)[O-])NC1CCCCCC1` it is 118 to 125 °C.
`Cc1cc(O)nc(Br)c1` registered a melting point of 152 °C.
The figure for `O=C1C[C@@H]2O[C@@H](CSc3ccccc3)CN12` (racemic) is 35.5 to 37 °C.
With `CC1(C)CC(N(c2nc(Cl)nc(N(C3CC(C)(C)N(O)C(C)(C)C3)C3CC(C)(C)N(O)C(C)(C)C3)n2)C2CC(C)(C)N(O)C(C)(C)C2)CC(C)(C)N1O` the figure was 252 to 256 °C; with `CCC(Oc1cc(Cl)cc(Cl)c1)C(=O)NC(C)(C)C#CCCO` (stereo not given), 104 to 106 °C.
The figure for `Cc1cc(OCc2ccccc2)c(F)cc1[N+](=O)[O-]` is 95 °C; for `CCCCCCCCCC(=O)OC(=C(OC(=O)CCCCCCCCC)c1ccccn1)c1ccccn1` it is 89 to 90 °C; for `COC(=O)c1c(C)c(-c2cccnc2)n2c1CSC2` it is 91 °C.
For the compound `C[C@@H](S[C@H]1CO[C@H](c2ccc(C(=O)Nc3nccs3)cc2)OC1)[C@](O)(Cn1cncn1)c1ccc(F)cc1F`, the melting point is 108 °C.
On to `COC(=O)c1ccc2oc(CCCCc3cc4cc(C(=O)OC)ccc4o3)cc2c1`, for which the melting point was in the range of 130 to 131 °C.
Consider `CC(C)(C)OC(=O)N1CCC(Nc2ccc3nc(NC(=O)c4ccc(C(C)(C)C)cc4)cn3n2)C1` (stereo not given), for which the melting point was in the range of 264 to 265 °C.
The figure for `CCCc1nc2c(c(C)c(C)n3nnnc23)n1CC(C)(C)NS(C)(=O)=O` is 190 to 192 °C; for `CC(C)Oc1ccc(-c2ccc(C#N)cc2)cc1C=O` it is 94 to 96 °C.
`N=C(NCc1ccccc1)NN=Cc1c(Cl)cccc1Cl` yielded a melting point of 70 to 80 °C.
Compound `CCCCc1nc2c(C(F)(F)F)cccc2c(O)c1C(=O)O` displayed a melting point of 140 to 141 °C.
As to `Cc1nc(C(C)C)c(S(=O)(=O)c2ccccc2)n1COCc1ccccc1`, the melting point is 116 to 117 °C.
Consider `Cc1c(Cl)nc(N2CCNCC2)nc1NC(C)C`, for which the melting point came to 199 °C.
Turning to `COc1ccc(N2CCN(Cc3ccc(CNC(C)=O)cc3)CC2)cc1`, the melting point was 137 to 138 °C.
The figure for `CCn1c(=O)c2c(C)onc2n(C)c1=O` is 103 to 104 °C; for `CCOC(=O)c1ccc(C(C(N)=O)C(C)c2cc(C)ccc2N2CCCCC2)cc1` (stereo not given) it is 132 °C; for `COC(=O)C1(F)C(=O)N(C)C(=O)NC1O` (stereo not given) it is 160 to 161 °C.
For `COc1ccc(C2=C(C#N)C(c3ccccc3Cl)c3c[nH]nc3N2)cc1` (stereo not given), the melting point was 124 °C.
The figure for `O=C1NCCN1Cc1cccc2ccccc12` is 121 to 125 °C.
In turn, `COc1ccccc1CNC(=O)c1[nH]c2ccc(Cl)cc2c1S(=O)(=O)c1ccccc1` gave a melting point of 235 to 237 °C.
With `CN(C)C1(c2ccccc2)CCC(c2[nH]c3ccccc3c2C2CC2)CC1` (stereo not given) the figure was 238 to 245 °C.
With `CC(C)n1nc(Br)c([N+](=O)[O-])c1Br` the figure was 72 to 73 °C.
The figure for `COc1ccc(SCc2ccc(-c3csnn3)cc2)cc1` is 117 to 119 °C.
The compound `CC(C)(C)OC(=O)NC(Cc1ccccc1)C(O)C(N)Cc1ccccc1` (stereo not given) displayed a melting point of 134 to 135 °C.
For the compound `CC(=O)c1ccc(Cn2ccc3c4c(N)nc(N)nc4ccc32)cc1`, the melting point lay within 224 to 225 °C.
Turning to `Cc1nc(N)nc(N)c1C=CC(C)c1ccc(Cl)cc1` (stereo not given), the melting point fell in the range of 158 to 165 °C.
The figure for `OCCNCC(O)c1cccc(OCc2ccccc2)c1` (stereo not given) is 114 °C; for `COC(=O)Nc1nc2ccccc2n1C(=O)NC(=O)C(Cl)=C(Cl)Cl` it is 231 °C.
Regarding `O=S(=O)(Nc1cc(Cl)c(Cl)c(Cl)c1)c1cc(S(=O)(=O)Nc2cc(Cl)c(Cl)c(Cl)c2)c2cc(O)ccc2c1`, the melting point was in the range of 164 to 166 °C.
In turn, `CN(C)CCN(C)C(=O)[C@H]1CC[C@H](N(C)S(=O)(=O)c2ccc(C(F)(F)F)cc2)CC1` had a melting point of 83 °C.
Regarding `CC(=O)OCC1OC(n2c(=O)sc3c(Cl)nc(N)nc32)C(OC(C)=O)C1OC(C)=O` (stereo not given), the melting point was in the range of 101 to 103 °C.
With `COc1nc(C)cnc1NS(=O)(=O)c1cccnc1-c1ccc(C)cc1` the figure was 184 to 185 °C; with `CC(C)S(=O)(=O)n1c(N)nc2ccc(C(=C(Cl)Cl)c3ccccc3)cc21`, 187 to 188 °C; with `COC1(c2csc(S(=O)(=O)c3ccc(/C(C)=N/O)cc3)c2)CCOCC1`, 141 to 142 °C.
The figure for `COc1ccc(-c2cc(=Nc3c(C)cc(C)cc3C)n(C)c(=O)n2C)cc1OC` is 68 to 70 °C; for `COc1cc2c3c(c1OC)CCc1ccccc1C3CNC2` (stereo not given) it is over 250 °C; for `CN(C)C=Nc1nc(OCOC(=O)C(C)(C)C)ncc1F` it is 86 to 88 °C.
The figure for `CN(C)C(=O)NC(=O)C(C)(C)Br` is 98 to 100 °C.
Consider `CN(C)c1ccc(C=O)c(O)c1`, for which the melting point fell in the range of 77 to 78 °C.
With `Cc1ccc2nc(-c3ccccc3)cc(OCC(=O)N3CCOCC3)c2c1` the figure was 158 °C; with `COC(=O)c1ccc(NCCCCCCCCCCCCCCCCBr)cc1`, 92 to 93 °C.
Compound `COc1c(Cl)ccc(-c2cc(N)c(Cl)c(C(=O)NOCC3CC3)n2)c1F` yielded a melting point of 164 to 166 °C.
Consider `O=C1c2cc([N+](=O)[O-])ccc2CC2CCCCN12` (stereo not given), for which the melting point was in the range of 137 to 142 °C.
With `Cc1cc(SCc2ccc(-c3ccc(C(F)(F)F)cc3)cc2)c2c(c1OCC(=O)O)CCC2` the figure was 177 °C.
With `CCCCCCN1CCN(Cc2ccc(N)cc2)C(=O)C1=O` the figure was 99 to 102 °C; with `COc1ccc(NC(=O)c2c(C)nc3ccccc3c2O)cc1`, 222 °C.
With `OCc1cccc(-c2ncc(Br)cn2)c1` the figure was 115 to 116 °C; with `COc1ccc(-c2[nH]nc3c2C(=O)c2c(NC(=O)C4CCC4)cccc2-3)cc1`, 297 °C.
`CC1(C)C=Cc2cc(C#N)c(N)cc2O1` gave a melting point of 137 to 138 °C.
Compound `COC(=O)Nc1ccc(C(=O)N(C)C)c(S(=O)(=O)NC(C)(C)C)c1` registered a melting point of 184 to 188 °C.

These data come from a melting point compilation (Tetko et al.; mined from patent text by program, amines drawn as free bases though some values may be those of a salt).
